Measurements published in patent US11708346B2, “Treatment and prevention of neuropathic pain with P2Y14 antagonists” (Saint Louis University, priority 2019, dated 2023).
Values joined by “and” are separate entries in the source; they are usually repeats but may differ in a detail not shown here. Equal entries are not always repeated. “Also recorded” adds a separate entry of the source.

How the values were obtained:
[1] = tested on: CCI-induced mechano-allodynia; test: Chronic constriction injury (CCI) of the sciatic nerve, mechano-allodynia by von Frey filaments; assay type: in vivo, mouse; details: for Effect at 0.5 h (% ± SD), percent inhibition of mechano-allodynia / Effect at 1 h (% + SD), percent inhibition of mechano-allodynia / Effect at 2 h (% ± SD), percent inhibition of mechano-allodynia / Effect at 3 h (% ± SD), percent inhibition of mechano-allodynia / Effect at 5 h (% ± SD), percent inhibition of mechano-allodynia / Reversal of CCI-induced mechano-allodynia / ED50: day 7 post-CCI; for Effect at 0.5 h (% ± SD), percent inhibition of mechano-allodynia / Effect at 1 h (% + SD), percent inhibition of mechano-allodynia / Effect at 2 h (% ± SD), percent inhibition of mechano-allodynia / Effect at 3 h (% ± SD), percent inhibition of mechano-allodynia / Effect at 5 h (% ± SD), percent inhibition of mechano-allodynia: n = 3; for Reversal of CCI-induced mechano-allodynia: ipsilateral hind paw; for ED50: Mus musculus, ip, read-out: ED50 at 1 h (95% CI), reversal of mechano-allodynia, 1 h post drug
Description: Chronic constriction injury (CCI) to the sciatic nerve was performed using the Bennett model. […] Then the animals were placed on a sterile surgical field and the skin was wiped with topical antiseptic, Dermachlor solution (0.2% chlorhexidine gluconate). […] A small incision was created on the lateral side of the left hind limb parallel to the femur. The sciatic nerve was exposed and ligated on two sites about 1 mm apart above the trifurcation using silk sutures 6.0. The incision was closed with clips and lidocaine cream was applied.
Mice were acclimated to the testing mesh-rack for 30 min before behavioral measurements. All behavioral testing was performed in the morning. The baseline measurements were determined on day 0 before CCI procedure. On day 7 post-CCI, baseline behavior responses were assessed, beginning prior to drug administration. Following drug injection, the behaviors were evaluated at multiple time points. Mechano-allodynia was quantified according to the hind paw withdrawal response to von Frey filaments stimulation by the Dixon up-and-down method. […] In presence of a positive withdrawal response a lighter filament was applied. If a negative response occurred, a stronger filament was used. At least four readings are obtained after the first positive response and the pattern of response was converted to a 50% paw withdrawal threshold (PWT), using the method described by Chaplan et al., J. Neurosci.
Data are expressed as mean±SD and analyzed by two-tailed, two-way repeated measures ANOVA with Dunnett's post hoc comparisons to day 7 behavior. The percentage of reversal of peak CCI-induced pain afforded by each drug was calculated for each animal using their baseline and day 7 post CCI behavioral measures. % Reversal=(PWT(g)t−PWT(g)day7)/PWT(g)day0−PWT(g)day7)×100, where PWT(g)=paw withdrawal threshold, t=time after drug. […] All statistical analyses were performed using GraphPad Prism 8 (Graph Pad Inc., San Diego, Calif.). Significance was accepted at p<0.05.

CB2 cannabinoid receptor = target: T1, CB2 cannabinoid receptor (Homo sapiens, UniProt P34972); test: PRESTO-Tango agonist/antagonist assay; assay type: cell-based
T1 construct: expressed in transfected cells
Description: (§1) Synthesis of 7 was performed using a Sonogashira reaction (11 to 12), click reaction (13 to 14) and a Suzuki reaction (15 to 16) followed by two-step deprotection. […].

CB1 cannabinoid receptor = target: T2, CB1 cannabinoid receptor (Homo sapiens, UniProt P21554); test: PRESTO-Tango agonist/antagonist assay; assay type: cell-based
T2 construct: expressed in transfected cells
Description: as §1

mP2Y14R = target: T3, mP2Y14R (Mus musculus, UniProt Q9ESG6); details: read-out: Mouse P2Y14R binding affinity (IC50); mP2Y14R in HEK293 cells, tracer 20
T3 sequence (Q9ESG6 1-338): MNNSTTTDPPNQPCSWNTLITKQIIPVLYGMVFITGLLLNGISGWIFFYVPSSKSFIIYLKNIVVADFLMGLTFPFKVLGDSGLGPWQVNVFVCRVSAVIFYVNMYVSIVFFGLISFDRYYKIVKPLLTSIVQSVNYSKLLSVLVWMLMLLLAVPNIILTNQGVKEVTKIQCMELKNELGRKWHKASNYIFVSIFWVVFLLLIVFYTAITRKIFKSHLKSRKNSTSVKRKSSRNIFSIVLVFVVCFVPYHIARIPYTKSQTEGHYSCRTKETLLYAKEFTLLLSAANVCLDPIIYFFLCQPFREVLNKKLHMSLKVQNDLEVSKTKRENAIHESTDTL

hP2Y14R = target: T4, hP2Y14R (Homo sapiens, UniProt Q15391); test: Competitive fluorescent binding assay in whole CHO-hP2Y14R cells, tracer 20, flow cytometry; details: read-out: Human P2Y14R binding affinity (IC50)
T4 construct: expressed in transfected cells; host or cells: CHO
T4 sequence (Q15391 1-338): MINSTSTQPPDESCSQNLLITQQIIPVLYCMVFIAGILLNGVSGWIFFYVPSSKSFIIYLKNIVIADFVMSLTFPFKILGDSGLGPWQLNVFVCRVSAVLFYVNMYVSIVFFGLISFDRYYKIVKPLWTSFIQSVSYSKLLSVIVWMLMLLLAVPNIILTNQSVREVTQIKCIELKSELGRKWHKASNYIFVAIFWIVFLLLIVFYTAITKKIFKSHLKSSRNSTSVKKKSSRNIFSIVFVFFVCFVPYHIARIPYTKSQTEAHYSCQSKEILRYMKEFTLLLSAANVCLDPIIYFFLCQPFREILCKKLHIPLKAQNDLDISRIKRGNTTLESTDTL

5HT1D = 5HT1D (Homo sapiens, UniProt P28221); test: PDSP off-target binding; details: ± SEM
Chain of 5HT1D (P28221 whole entry, species assumed): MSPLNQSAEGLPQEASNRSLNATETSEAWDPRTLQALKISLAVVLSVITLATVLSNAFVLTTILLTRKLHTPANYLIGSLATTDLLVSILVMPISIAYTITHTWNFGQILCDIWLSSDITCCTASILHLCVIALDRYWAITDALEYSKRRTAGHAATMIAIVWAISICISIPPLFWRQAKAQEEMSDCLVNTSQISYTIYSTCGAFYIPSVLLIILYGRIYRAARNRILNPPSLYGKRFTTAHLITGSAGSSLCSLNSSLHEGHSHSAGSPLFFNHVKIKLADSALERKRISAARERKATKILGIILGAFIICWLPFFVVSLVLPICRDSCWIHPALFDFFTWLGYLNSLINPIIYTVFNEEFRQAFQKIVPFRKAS

T2 sequence (P21554 whole entry): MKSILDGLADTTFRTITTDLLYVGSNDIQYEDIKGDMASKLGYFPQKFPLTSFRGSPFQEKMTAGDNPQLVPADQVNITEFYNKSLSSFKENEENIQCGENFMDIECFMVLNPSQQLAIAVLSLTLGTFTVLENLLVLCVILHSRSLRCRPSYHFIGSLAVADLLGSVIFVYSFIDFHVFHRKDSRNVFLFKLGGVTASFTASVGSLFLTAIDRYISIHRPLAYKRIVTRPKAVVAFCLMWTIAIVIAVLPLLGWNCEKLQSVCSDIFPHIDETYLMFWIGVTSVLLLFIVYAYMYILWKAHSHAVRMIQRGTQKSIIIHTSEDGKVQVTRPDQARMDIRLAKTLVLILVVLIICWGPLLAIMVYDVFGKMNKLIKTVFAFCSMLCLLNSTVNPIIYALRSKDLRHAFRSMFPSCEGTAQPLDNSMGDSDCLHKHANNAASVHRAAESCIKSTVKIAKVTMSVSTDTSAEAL
T1 sequence (P34972 whole entry): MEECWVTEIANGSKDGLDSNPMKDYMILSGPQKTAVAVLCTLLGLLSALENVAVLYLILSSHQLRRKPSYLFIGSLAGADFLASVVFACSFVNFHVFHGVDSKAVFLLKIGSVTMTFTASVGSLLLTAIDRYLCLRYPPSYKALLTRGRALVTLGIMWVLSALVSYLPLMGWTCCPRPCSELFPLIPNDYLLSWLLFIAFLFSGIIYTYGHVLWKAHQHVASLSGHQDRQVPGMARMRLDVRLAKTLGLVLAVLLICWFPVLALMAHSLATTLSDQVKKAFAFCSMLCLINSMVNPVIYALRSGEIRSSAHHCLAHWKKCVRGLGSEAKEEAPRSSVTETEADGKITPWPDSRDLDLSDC

| Compound | Effect at 0.5 h (% ± SD), percent inhibition of mechano-allodynia ([1]; 10 μmol/kg, i.p.) | Effect at 1 h (% + SD), percent inhibition of mechano-allodynia ([1]; 10 μmol/kg, i.p.) | Effect at 2 h (% ± SD), percent inhibition of mechano-allodynia ([1]; 10 μmol/kg, i.p.) | Effect at 3 h (% ± SD), percent inhibition of mechano-allodynia ([1]; 10 μmol/kg, i.p.) | Effect at 5 h (% ± SD), percent inhibition of mechano-allodynia ([1]; 10 μmol/kg, i.p.) | Reversal of CCI-induced mechano-allodynia ([1]; 10 μmol/kg, i.p.) | IC50 (mP2Y14R) | IC50 (hP2Y14R) | also measured |
| --- | --- | --- | --- | --- | --- | --- | --- | --- | --- |
| O=C(O)c1cc(-c2ccc(C3CCNCC3)cc2)c2ccc(-c3ccc(C(F)(F)F)cc3)cc2c1 [Compound 1, 4-[4-(piperidin-4-yl)phenyl]-7-[4-(rifluoromethyl)phenyl]-2-naphthoic acid] | 87.9 ± 12.9% | 100% and 100 ± 0.0% | 96.4 ± 6.2% | 78.6 ± 9.4% | 21.3 ± 14.1% | fully efficacious; also recorded: reversed the allodynia | – | – | Effect at 0.5 h (% ± SD), percent inhibition of mechano-allodynia ([1]; 1 μmol/kg, i.p.): 10.0 ± 17.3%; Effect at 1 h (% + SD), percent inhibition of mechano-allodynia ([1]; 1 μmol/kg, i.p.): 19.9 ± 17.3%; Effect at 2 h (% ± SD), percent inhibition of mechano-allodynia ([1]; 1 μmol/kg, i.p.): 10.0 ± 17.3%; Effect at 3 h (% ± SD), percent inhibition of mechano-allodynia ([1]; 1 μmol/kg, i.p.): 4.7 ± 8.2%; Effect at 5 h (% ± SD), percent inhibition of mechano-allodynia ([1]; 1 μmol/kg, i.p.): 4.7 ± 8.2%; Effect at 0.5 h (% ± SD), percent inhibition of mechano-allodynia ([1]; 3 μmol/kg, i.p.): 62.9 ± 18.7%; Effect at 1 h (% + SD), percent inhibition of mechano-allodynia ([1]; 3 μmol/kg, i.p.): 79.3 ± 2.2%; Effect at 2 h (% ± SD), percent inhibition of mechano-allodynia ([1]; 3 μmol/kg, i.p.): 76.9 ± 6.3%; Effect at 3 h (% ± SD), percent inhibition of mechano-allodynia ([1]; 3 μmol/kg, i.p.): 64.7 ± 17.2%; Effect at 5 h (% ± SD), percent inhibition of mechano-allodynia ([1]; 3 μmol/kg, i.p.): 8.7 ± 15.1%; ED50 ([1]; i.p.): 1.6 µmol/kg; IC50 (CB2 cannabinoid receptor): > 50 µM; IC50 (CB1 cannabinoid receptor): > 50 µM |
| O=C(O)c1cc(O)c2ccc(-c3ccc(C(F)(F)F)cc3)cc2c1 [Compound 2] | 23.4 ± 21.2% | 64.2 ± 24.9% | 59.8 ± 18.1% | 35.2 ± 22.2% | 0.0 ± 0.0% | reversed the allodynia | 1.6 ± 0.25 µM | 3.2 ± 0.64 µM | – |
| C#CCCCCN1CCC(c2ccc(-c3cc(C(=O)O)cc4cc(-c5ccc(C(F)(F)F)cc5)ccc34)cc2)CC1 [Compound 3] | 52.4 ± 23.3% | 75.9 ± 15.0% | 42.7 ± 9.6% | 9.6 ± 16.7% | 0.0 ± 0.0% | – | 0.13 ± 0.03 µM | 0.0763 ± 0.0244 µM | Ratio of protection at 3 h divided by the protection at 5 h (duration of action) ([1]; 10 μmol/kg i.p.): 0.13 |
| CCC(=O)N1CCC(c2ccc(-c3cc(C(=O)O)cc4cc(-c5ccc(C(F)(F)F)cc5)ccc34)cc2)CC1 [Compound 5, 4-(4-(1-(Propionyl)piperidin-4-yl)phenyl)-7-(4-(trifluoromethyl)phenyl)-2-naphthoic acid] | 32.9 ± 5.7% | 77.2 ± 26.1% | 71.6 ± 19.8% | 55.7 ± 27.1% | 5.6 ± 6.4% | – | 0.038 µM | 0.0418 ± 0.0018 µM | – |
| O=C(O)c1cc(-c2ccc(C3CCNCC3)cc2)cc(-n2cc(-c3ccc(C(F)(F)F)cc3)nn2)c1 [Compound 6] | 52.4 ± 9.6% | 67.4 ± 7.0% | 57.2 ± 13.3% | 31.9 ± 16.8% | 12.7 ± 13.2% | – | – | – | Effect at 0.5 h (% ± SD), percent inhibition of mechano-allodynia ([1]; 1 μmol/kg, i.p.): 8.7 ± 15.1%; Effect at 1 h (% + SD), percent inhibition of mechano-allodynia ([1]; 1 μmol/kg, i.p.): 18.7 ± 21.3%; Effect at 2 h (% ± SD), percent inhibition of mechano-allodynia ([1]; 1 μmol/kg, i.p.): 18.7 ± 21.3%; Effect at 3 h (% ± SD), percent inhibition of mechano-allodynia ([1]; 1 μmol/kg, i.p.): 8.7 ± 7.6%; Effect at 5 h (% ± SD), percent inhibition of mechano-allodynia ([1]; 1 μmol/kg, i.p.): 8.7 ± 15.1%; Effect at 0.5 h (% ± SD), percent inhibition of mechano-allodynia ([1]; 3 μmol/kg, i.p.): 44.6 ± 16.6%; Effect at 1 h (% + SD), percent inhibition of mechano-allodynia ([1]; 3 μmol/kg, i.p.): 53.3 ± 24.2%; Effect at 2 h (% ± SD), percent inhibition of mechano-allodynia ([1]; 3 μmol/kg, i.p.): 44.6 ± 16.6%; Effect at 3 h (% ± SD), percent inhibition of mechano-allodynia ([1]; 3 μmol/kg, i.p.): 35.6 ± 11.7%; Effect at 5 h (% ± SD), percent inhibition of mechano-allodynia ([1]; 3 μmol/kg, i.p.): 0.0 ± 0.0%; In vivo efficacy compared with a comparator compound ([1]; 10 μmol/kg i.p., 6 vs 7, 4 vs 1): no statistical difference; ED50 ([1]; i.p.): 3.5 µmol/kg |
| NCCCNC(=O)c1ccc(-c2cc(C(=O)O)cc(-n3cc(-c4ccc(C(F)(F)F)cc4)nn3)c2)s1 [Compound 8] | 81.0 ± 6.9% | 91.5 ± 7.4% | 74.0 ± 28.5% | 30.9 ± 21.0% | 10.0 ± 17.3% | – | 0.384 µM | 0.169 ± 0.042 µM | Emax, in vivo efficacy ([1]; 10 μmol/kg i.p.): 91.5%; Ki (5HT1D): 6.7 µM |
| NCCOCCOCCOCCOCCOCCOCCC(=O)N1CCC(c2ccc(-c3cc(C(=O)O)cc4cc(-c5ccc(C(F)(F)F)cc5)ccc34)cc2)CC1 [Compound 21] | – | – | – | – | – | fully efficacious | – | – | Time of peak protection ([1]; 10 μmol/kg i.p., after injection): 1 to 2 h; Effect on paw withdrawal threshold at the contralateral hind paw ([1]; 10 μmol/kg, i.p., versus vehicle control): No effect |
